Data published in patent US8252723B2, “Substituted 1-(3-pyridinyl)pyrazol-4-ylacetic acids, processes for their preparation and their use as herbicides and plant growth regulators” (Bayer CropScience AG, priority 2006, dated 2012).

tested on: weed plants such as Lolium multiflorum, Amaranthus retroflexus, Sinapis alba, Stellaria media and Setaria viridis; experiment: Pre-emergence effect on weeds (greenhouse pot test, visual scoring); format: in vivo; conditions: pre-emergence method, application rate of 1 kg or less of active substance per hectare, visual scoring after 3 to 4 weeks vs untreated controls; read-out: herbicidal action (control)
Description: Seeds or sections of rhizome from monocotyledonous and dicotyledonous weed plants were laid out in sandy loam soil in plastic pots, and covered with soil. The compounds according to the invention, formulated as wettable powders or emulsifiable concentrates, were then applied, in the form of aqueous suspensions or emulsions, at various dosages, onto the surface of the covering soil, at an application rate of 600 to 800 l of water/ha (converted).

Row | Compound | pest or weed control at up to 1000 g/ha [%]
1 | Cc1ccncc1-n1nc(C)c(CC(=O)OCC2CC2)c1-c1ccccc1 [Example 3-99, Cyclopropylmethyl [3-methyl-1-(4-methylpyridin-3-yl)-5-phenyl-1H-pyrazol-4-yl]acetate] | ≥ 70
2 | Cc1nn(-c2cccnc2)c(-c2cccc(Cl)c2)c1CC(=O)O [Example 1-17, [5-(3-Chlorophenyl)-3-methyl-1-pyridin-3-yl-1H-pyrazol-4-yl]acetic acid] | ≥ 70
3 | Cc1ccncc1-n1nc(C)c(CC(=O)O)c1-c1ccccc1 [Example 1-10, [3-Methyl-1-(4-methylpyridin-3-yl)-5-phenyl-1H-pyrazol-4-yl]acetic acid] | ≥ 70

tested on: weed plants such as Lolium multiflorum, Amaranthus retroflexus, Sinapis alba, Stellaria media and Setaria viridis; experiment: Post-emergence effect on weeds (greenhouse pot test, visual scoring); format: in vivo; conditions: application rate of 500 g or less of active substance per hectare, visual scoring after about 3 to 4 weeks vs untreated controls, read-out: herbicidal action (control)

Row | Compound | pest or weed control at up to 500 g/ha [%]
4 | Cc1ccncc1-n1nc(C)c(CC(=O)OCC2CC2)c1-c1ccccc1 [Example 3-99, Cyclopropylmethyl [3-methyl-1-(4-methylpyridin-3-yl)-5-phenyl-1H-pyrazol-4-yl]acetate] | ≥ 70
5 | Cc1nn(-c2cccnc2)c(-c2cccc(Cl)c2)c1CC(=O)O [Example 1-17, [5-(3-Chlorophenyl)-3-methyl-1-pyridin-3-yl-1H-pyrazol-4-yl]acetic acid] | ≥ 70
6 | Cc1ccncc1-n1nc(C)c(CC(=O)O)c1-c1ccccc1 [Example 1-10, [3-Methyl-1-(4-methylpyridin-3-yl)-5-phenyl-1H-pyrazol-4-yl]acetic acid] | ≥ 70

tested on: summer wheat of the cultivar 'Triso'; experiment: Plant growth regulation test: culm stabilization of crop plants; format: in vivo; conditions: application rate of 30 to 300 g of active substance per hectare, treated at stage BBCH 31, culm length measured after ears had formed
Summary of the method: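 Wettable-powder formulation with adjuvant (1 l/ha) sprayed at 300 l water/ha onto pot-grown plants at BBCH 31, then kept outdoors. After ear formation culm length was measured; culm stabilization is expressed as percent of untreated control.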

Row | Compound | longitudinal growth (culm length) of summer wheat
7 | Cc1ccncc1-n1nc(C)c(CC(=O)OCC2CC2)c1-c1ccccc1 [Example 3-99, Cyclopropylmethyl [3-methyl-1-(4-methylpyridin-3-yl)-5-phenyl-1H-pyrazol-4-yl]acetate] | effectively shortened
8 | Cc1nn(-c2cccnc2)c(-c2cccc(Cl)c2)c1CC(=O)O [Example 1-17, [5-(3-Chlorophenyl)-3-methyl-1-pyridin-3-yl-1H-pyrazol-4-yl]acetic acid] | effectively shortened
9 | Cc1ccncc1-n1nc(C)c(CC(=O)O)c1-c1ccccc1 [Example 1-10, [3-Methyl-1-(4-methylpyridin-3-yl)-5-phenyl-1H-pyrazol-4-yl]acetic acid] | effectively shortened
10 | COC(=O)Cc1c(C)nn(-c2cnccc2OC)c1-c1ccc(Cl)cc1 [Example 2-35] | effectively shortened
11 | Cc1ccncc1-n1nc(C)c(CC(=O)O)c1-c1ccccn1 [Example 1-132] | effectively shortened
12 | COC(=O)Cc1c(C)nn(-c2cnccc2C)c1-c1ccc(Cl)s1 [Example 2-55] | effectively shortened
13 | Cc1ccncc1-n1nc(C)c(CC(=O)O)c1-c1sccc1C [Example 1-53] | effectively shortened
14 | COC(=O)Cc1c(C)nn(-c2ccc(C)nc2C)c1-c1ccccc1 [Example 2-11] | effectively shortened
15 | COC(=O)Cc1c(C)nn(-c2cnccc2C)c1-c1ccccc1Cl [Example 2-22] | effectively shortened
16 | COC(=O)Cc1c(C)nn(-c2cnccc2C)c1-c1ccc(C(C)(C)C)cc1 [Example 2-32] | effectively shortened
17 | Cc1ccncc1-n1nc(C)c(CC(=O)O)c1-c1ccc(Cl)s1 [Example 1-55] | effectively shortened
18 | COC(=O)Cc1c(C)nn(-c2cccnc2)c1-c1cccs1 [Example 2-57] | effectively shortened
19 | COc1ccc(-c2c(CC(=O)O)c(C)nn2-c2cccnc2)cc1 [Example 1-14] | effectively shortened
20 | COC(=O)Cc1c(C)nn(-c2cnccc2C)c1-c1ccsc1 [Example 2-56] | effectively shortened
21 | Cc1ccsc1-c1c(CC(=O)O)c(C)nn1-c1cccnc1 [Example 1-58] | effectively shortened
22 | COC(=O)Cc1c(C)nn(-c2cccnc2)c1-c1cccnc1 [Example 2-125] | effectively shortened
23 | COC(=O)Cc1c(C)nn(-c2cccnc2)c1-c1cc(C)cc(C)c1 [Example 2-43] | effectively shortened
24 | COC(=O)Cc1c(C)nn(-c2cccnc2)c1-c1ccc(C(F)(F)F)cc1 [Example 2-28] | effectively shortened
25 | COC(=O)Cc1c(C2CC2)nn(-c2cccnc2)c1-c1ccc(Cl)cc1 [Example 2-146] | effectively shortened
26 | C=CCOC(=O)Cc1c(C)nn(-c2cccnc2)c1-c1ccccc1 [Example 3-148] | effectively shortened
27 | COC(=O)Cc1c(C)nn(-c2cccnc2)c1-c1ccc(F)cc1 [Example 2-120] | effectively shortened
28 | Cc1nn(-c2cccnc2)c(-c2ccc(C(=O)O)cc2)c1CC(=O)O [Example 1-42] | effectively shortened
29 | COC(=O)Cc1c(C)nn(-c2cnccc2C)c1-c1cccc(Cl)c1 [Example 2-21] | effectively shortened

Row | Compound | longitudinal growth (culm length) of summer wheat
30 | COc1ccncc1-n1nc(C)c(CC(=O)O)c1-c1ccccc1 [Example 1-34] | effectively shortened
31 | COC(=O)Cc1c(C)nn(-c2cccnc2)c1-c1ccc(O)nc1 [Example 2-70] | effectively shortened
32 | Cc1ccncc1-n1nc(C)c(CC(=O)O)c1-c1cccc(Cl)c1 [Example 1-21] | effectively shortened
33 | C=C(Cl)COC(=O)Cc1c(C)nn(-c2cccnc2)c1-c1cccs1 [Example 3-186] | effectively shortened
34 | O=C(O)Cc1c(C2CC2)nn(-c2cccnc2)c1-c1ccc(Cl)cc1 [Example 1-146] | effectively shortened
35 | Cc1ccc(-c2c(CC(=O)O)c(C)nn2-c2cccnc2)cc1Cl [Example 1-46] | effectively shortened
36 | Cc1ccc(-c2c(CC(=O)O)c(C)nn2-c2cccnc2)nc1 [Example 1-113] | effectively shortened
37 | COC(=O)Cc1c(C)nn(-c2cnccc2C)c1-c1ccc(Cl)c(Cl)c1 [Example 2-20] | effectively shortened
38 | Cc1csc(-c2c(CC(=O)O)c(C)nn2-c2cnccc2C)c1 [Example 1-54] | effectively shortened
39 | COC(=O)Cc1c(C)nn(-c2ccc(Cl)nc2)c1-c1ccccc1 [Example 2-7] | effectively shortened
40 | Cc1nn(-c2cccnc2)c(-c2ccc(Cl)c(Cl)c2)c1CC(=O)O [Example 1-27] | effectively shortened
41 | COC(=O)Cc1c(C)nn(-c2cccnc2)c1-c1ccc(C)cn1 [Example 2-113] | effectively shortened
42 | COC(=O)Cc1c(C)nn(-c2cccnc2)c1-c1cccc(OC)n1 [Example 2-145] | effectively shortened
43 | COC(=O)Cc1c(C)nn(-c2cccnc2)c1-c1sccc1C [Example 2-58] | effectively shortened
44 | Cc1nn(-c2cccnc2)c(-c2ccc(Cl)cc2)c1CC(=O)OCC1CCCCC1 [Example 3-177] | effectively shortened
45 | Cc1nn(-c2ccc(Cl)nc2)c(-c2ccccc2)c1CC(=O)O [Example 1-7] | effectively shortened
46 | COC(=O)Cc1c(C)nn(-c2cccnc2)c1-c1ccc(C)s1 [Example 2-61] | effectively shortened
47 | CC(C)=CCOC(=O)Cc1c(C)nn(-c2cccnc2)c1-c1ccccc1 [Example 3-152] | effectively shortened
48 | C=C(Cl)COC(=O)Cc1c(C)nn(-c2cccnc2)c1-c1sccc1C [Example 3-188] | effectively shortened
49 | COC(=O)Cc1c(C)nn(-c2cccnc2)c1-c1cccc(C)c1 [Example 2-119] | effectively shortened
50 | Cc1ccncc1-n1nc(C)c(CC(=O)O)c1-c1ccc(C(=O)O)cc1 [Example 1-39] | effectively shortened
51 | COC(=O)Cc1c(C)nn(-c2cccnc2)c1-c1ccco1 [Example 2-4] | effectively shortened
52 | C=C(Cl)COC(=O)Cc1c(C)nn(-c2cccnc2)c1-c1ccccc1 [Example 3-184] | effectively shortened
